In PubChem BioAssay AID2060490 (Molecular Pharmacology Branch, DTP, NCI, 2025):

System: 885512-296-R-J2-PDC complex spheroid viability
Assay: Anticancer human tumor 885512-296-R-J2-PDC patient-derived breast carcinoma cell line growth inhibition [GQUAD]
Details: for IC50: curve of first compound; for viability, T/C: stronger effect = lower value
Summary of the method: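 Multi-cell-type spheroids of tumor cells with HUVEC and mesenchymal stem cells, treated with drug combinations. Concentrations descend in half-log steps from near clinical Cmax, or from 10 microM where Cmax is unknown; viability read-out.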

[1] = second compound 0.0316 µM, first compound 0.0316 µM
[2] = second compound 0.0316 µM, first compound 0.1 µM
[3] = second compound 0.0316 µM, first compound 0.316 µM
[4] = second compound 0.0316 µM, first compound 1 µM
[5] = second compound 0.0316 µM, first compound 3.16 µM
[6] = second compound 0.0316 µM, first compound 10 µM
[7] = second compound 0.1 µM, first compound 0.0316 µM
[8] = second compound 0.1 µM, first compound 0.1 µM
[9] = second compound 0.1 µM, first compound 0.316 µM
[10] = second compound 0.1 µM, first compound 1 µM
[11] = second compound 0.1 µM, first compound 3.16 µM
[12] = second compound 0.1 µM, first compound 10 µM
[13] = second compound 0.316 µM, first compound 0.0316 µM
[14] = second compound 0.316 µM, first compound 0.1 µM
[15] = second compound 0.316 µM, first compound 0.316 µM
[16] = second compound 0.316 µM, first compound 1 µM
[17] = second compound 0.316 µM, first compound 3.16 µM
[18] = second compound 0.316 µM, first compound 10 µM
[19] = second compound 1 µM, first compound 0.0316 µM
[20] = second compound 1 µM, first compound 0.1 µM
[21] = second compound 1 µM, first compound 0.316 µM
[22] = second compound 1 µM, first compound 1 µM
[23] = second compound 1 µM, first compound 3.16 µM
[24] = second compound 1 µM, first compound 10 µM
[25] = second compound 3.16 µM, first compound 0.0316 µM
[26] = second compound 3.16 µM, first compound 0.1 µM
[27] = second compound 3.16 µM, first compound 0.316 µM
[28] = second compound 3.16 µM, first compound 1 µM
[29] = second compound 3.16 µM, first compound 3.16 µM
[30] = second compound 3.16 µM, first compound 10 µM
[31] = second compound 10 µM, first compound 0.0316 µM
[32] = second compound 10 µM, first compound 0.1 µM
[33] = second compound 10 µM, first compound 0.316 µM
[34] = second compound 10 µM, first compound 1 µM
[35] = second compound 10 µM, first compound 3.16 µM
[36] = second compound 10 µM, first compound 10 µM
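Further: spheroids exposed to the compounds for one week.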
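Wherever viability, T/C is given: percent of tumor spheroid viability relative to DMSO vehicle control wells.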

Q: `O=C(NO)c1cnc(N2CCN(S(=O)(=O)c3ccc4ccccc4c3)CC2)nc1` + Cc1cnc(CNC(=O)c2c(=O)c3ccc(N4CCCN(C)CC4)nc3n3c2sc2ccccc23)cn1 was tested. Which IC50 (second compound 0.0316 µM) did it give?
A: The IC50 was 64.4 nM.

Q: And the IC50 (second compound 0.1 µM)?
A: Its IC50 is < 31.6 nM.

Q: And the IC50 (second compound 0.316 µM)?
A: Its IC50 is < 31.6 nM.

Q: And the IC50 (second compound 1 µM)?
A: Its IC50 is < 31.6 nM.

Q: And the IC50 (second compound 3.16 µM)?
A: Its IC50 is < 31.6 nM.

Q: What about the IC50 (second compound 10 µM) of the same molecule?
A: Its IC50 is < 31.6 nM.

Q: And the viability, T/C [1]?
A: Its viability, T/C is 65.9%.

Q: What about the viability, T/C [2] of the same molecule?
A: The viability, T/C was 38.7%.

Q: And the viability, T/C [3]?
A: Its viability, T/C is 23.6%.

Q: And the viability, T/C [4]?
A: Its viability, T/C is 5.79%.

Q: And the viability, T/C [5]?
A: The viability, T/C was 0.51%.

Q: And the viability, T/C [6]?
A: The viability, T/C was 0.13%.

Q: What about the viability, T/C [7] of the same molecule?
A: The viability, T/C was 42.8%.

Q: And the viability, T/C [8]?
A: The viability, T/C was 37.7%.

Q: What about the viability, T/C [9] of the same molecule?
A: The viability, T/C was 27.8%.

Q: What about the viability, T/C [10] of the same molecule?
A: The viability, T/C was 6.31%.

Q: What about the viability, T/C [11] of the same molecule?
A: The viability, T/C was 0.49%.

Q: What about the viability, T/C [12] of the same molecule?
A: Its viability, T/C is 0.43%.

Q: What about the viability, T/C [13] of the same molecule?
A: Its viability, T/C is 22.8%.

Q: And the viability, T/C [14]?
A: The viability, T/C was 19.5%.

Q: And the viability, T/C [15]?
A: The viability, T/C was 21.7%.

Q: What about the viability, T/C [16] of the same molecule?
A: Its viability, T/C is 7.7%.

Q: What about the viability, T/C [17] of the same molecule?
A: Its viability, T/C is 0.43%.

Q: What about the viability, T/C [18] of the same molecule?
A: The viability, T/C was 0.1%.

Q: What about the viability, T/C [19] of the same molecule?
A: Its viability, T/C is 19.3%.

Q: What about the viability, T/C [20] of the same molecule?
A: Its viability, T/C is 14.9%.

Q: And the viability, T/C [21]?
A: Its viability, T/C is 13.7%.

Q: And the viability, T/C [22]?
A: The viability, T/C was 0.1%.

Q: And the viability, T/C [23]?
A: Its viability, T/C is 0.07%.

Q: What about the viability, T/C [24] of the same molecule?
A: Its viability, T/C is 0.11%.

Q: And the viability, T/C [25]?
A: The viability, T/C was 10%.

Q: What about the viability, T/C [26] of the same molecule?
A: The viability, T/C was 6.5%.

Q: And the viability, T/C [27]?
A: The viability, T/C was 0.13%.

Q: What about the viability, T/C [28] of the same molecule?
A: Its viability, T/C is 0.1%.

Q: What about the viability, T/C [29] of the same molecule?
A: Its viability, T/C is 0.09%.

Q: And the viability, T/C [30]?
A: Its viability, T/C is 0.12%.

Q: And the viability, T/C [31]?
A: Its viability, T/C is 0.07%.

Q: What about the viability, T/C [32] of the same molecule?
A: Its viability, T/C is 0.15%.

Q: And the viability, T/C [33]?
A: The viability, T/C was 0.15%.

Q: What about the viability, T/C [34] of the same molecule?
A: Its viability, T/C is 0.12%.

Q: And the viability, T/C [35]?
A: Its viability, T/C is 0.15%.

Q: And the viability, T/C [36]?
A: Its viability, T/C is 0.17%.

Q: What does the source list for `CC(C)(O)C1CCC(Nc2ccc3ncc(-c4cccc(C(F)(F)F)c4)n3n2)CC1` (stereo unspecified) + CN(C)c1ccc(Nc2c3ccc(NC(=O)CCN4CCCC4)cc3nc3cc(NC(=O)CCN4CCCC4)ccc23)cc1?
A: IC50 (second compound 0.0316 µM): 1720 nM; IC50 (second compound 0.1 µM): 1510 nM; IC50 (second compound 0.316 µM): 1560 nM; IC50 (second compound 1 µM): 1550 nM; IC50 (second compound 3.16 µM): 1030 nM; IC50 (second compound 10 µM): < 31.6 nM; viability, T/C [1]: 111%; viability, T/C [2]: 99.6%; viability, T/C [3]: 105%; viability, T/C [4]: 78.7%; viability, T/C [5]: 11.9%; viability, T/C [6]: 23.8%; viability, T/C [7]: 99.6%; viability, T/C [8]: 95%; viability, T/C [9]: 97.9%; viability, T/C [10]: 68.4%; viability, T/C [11]: 15.2%; viability, T/C [12]: 18.6%; viability, T/C [13]: 106%; viability, T/C [14]: 98.6%; viability, T/C [15]: 86.3%; viability, T/C [16]: 72.2%; viability, T/C [17]: 9.35%; viability, T/C [18]: 19.9%; viability, T/C [19]: 92.7%; viability, T/C [20]: 92.4%; viability, T/C [21]: 86.3%; viability, T/C [22]: 72.5%; viability, T/C [23]: 9.81%; viability, T/C [24]: 16.3%; viability, T/C [25]: 102%; viability, T/C [26]: 87.9%; viability, T/C [27]: 80.5%; viability, T/C [28]: 54.9%; viability, T/C [29]: 4.35%; viability, T/C [30]: 4.39%; viability, T/C [31]: 16.9%; viability, T/C [32]: 12.6%; viability, T/C [33]: 16%; viability, T/C [34]: 8.44%; viability, T/C [35]: 0.72%; viability, T/C [36]: 0.22%

Q: With `C#Cc1c(F)ccc2cc(O)cc(-c3ncc4c(N5CC6CCC(C5)N6)nc(OCC56CCCN5CC(F)C6)nc4c3F)c12` (stereo unspecified) + Cc1[nH]c2ccc(F)cc2c1-c1nc2c3cccnc3c3ncccc3c2[nH]1 as the molecule, how does the IC50 (second compound 0.0316 µM) read?
A: The IC50 was 1600 nM.

Q: And the IC50 (second compound 0.1 µM)?
A: Its IC50 is 1450 nM.

Q: And the IC50 (second compound 0.316 µM)?
A: Its IC50 is 1450 nM.

Q: What about the IC50 (second compound 1 µM) of the same molecule?
A: The IC50 was 393 nM.

Q: What about the IC50 (second compound 3.16 µM) of the same molecule?
A: The IC50 was < 31.6 nM.

Q: And the IC50 (second compound 10 µM)?
A: Its IC50 is < 31.6 nM.

Q: And the viability, T/C [1]?
A: Its viability, T/C is 109%.

Q: What about the viability, T/C [2] of the same molecule?
A: The viability, T/C was 92.7%.

Q: What about the viability, T/C [3] of the same molecule?
A: Its viability, T/C is 94.5%.

Q: And the viability, T/C [4]?
A: The viability, T/C was 73.4%.

Q: What about the viability, T/C [5] of the same molecule?
A: Its viability, T/C is 13.6%.

Q: And the viability, T/C [6]?
A: The viability, T/C was 18.1%.

Q: And the viability, T/C [7]?
A: Its viability, T/C is 103%.

Q: And the viability, T/C [8]?
A: Its viability, T/C is 90.8%.

Q: What about the viability, T/C [9] of the same molecule?
A: Its viability, T/C is 95%.

Q: What about the viability, T/C [10] of the same molecule?
A: The viability, T/C was 67.7%.

Q: And the viability, T/C [11]?
A: The viability, T/C was 8.04%.

Q: What about the viability, T/C [12] of the same molecule?
A: The viability, T/C was 17.1%.

Q: And the viability, T/C [13]?
A: The viability, T/C was 88.6%.

Q: And the viability, T/C [14]?
A: The viability, T/C was 87.4%.

Q: What about the viability, T/C [15] of the same molecule?
A: Its viability, T/C is 82.3%.

Q: And the viability, T/C [16]?
A: The viability, T/C was 67.5%.

Q: And the viability, T/C [17]?
A: The viability, T/C was 10.2%.

Q: And the viability, T/C [18]?
A: Its viability, T/C is 16.4%.

Q: And the viability, T/C [19]?
A: The viability, T/C was 52.9%.

Q: What about the viability, T/C [20] of the same molecule?
A: Its viability, T/C is 52.9%.

Q: What about the viability, T/C [21] of the same molecule?
A: Its viability, T/C is 54.3%.

Q: And the viability, T/C [22]?
A: Its viability, T/C is 35.6%.

Q: What about the viability, T/C [23] of the same molecule?
A: The viability, T/C was 1.25%.

Q: What about the viability, T/C [24] of the same molecule?
A: Its viability, T/C is 1.01%.

Q: And the viability, T/C [25]?
A: The viability, T/C was 2.98%.

Q: What about the viability, T/C [26] of the same molecule?
A: Its viability, T/C is 2.55%.

Q: What about the viability, T/C [27] of the same molecule?
A: The viability, T/C was 4.13%.

Q: What about the viability, T/C [28] of the same molecule?
A: The viability, T/C was 1.7%.

Q: And the viability, T/C [29]?
A: The viability, T/C was 0.26%.

Q: What about the viability, T/C [30] of the same molecule?
A: The viability, T/C was 0.33%.

Q: And the viability, T/C [31]?
A: Its viability, T/C is 1.35%.

Q: And the viability, T/C [32]?
A: Its viability, T/C is 1.38%.

Q: And the viability, T/C [33]?
A: The viability, T/C was 1.82%.

Q: And the viability, T/C [34]?
A: The viability, T/C was 1.42%.

Q: And the viability, T/C [35]?
A: The viability, T/C was 0.24%.

Q: What about the viability, T/C [36] of the same molecule?
A: Its viability, T/C is 0.41%.
